Earlier results in US20050042178A1, “Microparticles containing the CGRP-antagonist 1-[N2-[3,5-dibrom-N-[[4-(3,4-dihydro-2(1H)-oxoquinazoline-3-yl)-1-piperidinyl]carbonyl]-D-tyrosyl]-L-lysyl]-4-(4-pyridinyl)-piperazine, process for preparing and the use thereof as inhalation powder” (Boehringer Ingelheim International GmbH, priority 2003, published 2005).

Conditions: conventional formulations

oral bioavailability: very limited
Compound: NCCCC[C@H](NC(=O)[C@@H](Cc1cc(Br)c(O)c(Br)c1)NC(=O)N1CCC(N2Cc3ccccc3NC2=O)CC1)C(=O)N1CCN(c2ccncc2)CC1 [A, 1-[N^2-[3,5-dibromo-N-[[4-(3,4-dihydro-2(1H)-oxoquinazolin-3-yl)-1-piperidinyl]carbonyl]-D-tyrosyl]-L-lysyl]-4-(4-pyridinyl)-piperazine]
